Assay results taken from article PMC5278707, “Structure-Activity Relationships of a Series of Echinocandins and the Discovery of CD101, a Highly Stable and Soluble Echinocandin with Distinctive Pharmacokinetic Properties” (Antimicrobial Agents and Chemotherapy, 2017).
Converted amounts (≈) assume the structure as drawn. Like-named read-outs stand apart in the source and are kept apart here. *1 amine or outer side, *2 acyl side, *3 side chain or, on linkers, in order; H or OH if unused. Where a SMILES comes first, the peptide text is derived from it. Bridges are numbered along the chain shown (N, C = ends). [ ]: non-standard residue; d: D form. The star is where a group is joined. pTerphenylCO(4''-OnC5H11) = CCCCCOc1ccc(-c2ccc(-c3ccc(C(=O)*)cc3)cc2)cc1; Orn(4R-OH,5R-OH) = O=C([C@H](C[C@@H](O)[C@@H](O)N[*:3])N[*:1])[*:2]; hTyr(3S-OH,4S-OH) = N[C@H](C(=O)O)[C@H](O)[C@@H](O)c1ccc(O)cc1; Pro(3S-OH,4S-Me) = C[C@H]1CN[C@H](C(=O)O)[C@H]1O; Hyp = O=C(O)[C@@H]1C[C@@H](O)CN1

Experiments:
[1] = system: Aspergillus fumigatus ATCC 204305; experiment: CLSI broth microdilution (M38-A2) MEC/MIC; format: cell-based; conditions: 48 h, stunted hyphal growth
Method: (§1) All yeast and mold isolates were obtained from the American Type Culture Collection (ATCC). Isolates were plated on an agar medium to verify purity, and single colonies were picked. Aspergillus isolates were resubcultured on potato dextrose slants and incubated for 7 days at 35°C. Candida isolates were streaked on SDA plates and incubated for 24 h at 35°C. RPMI 1640 medium (HyClone Laboratories, Logan, UT) and the inoculum for each organism were prepared according to Clinical and Laboratory Standards Institute (CLSI) guidelines ([27][–][29]). Stock solutions for all test articles were prepared in 100% dimethyl sulfoxide (DMSO). Susceptibility testing was performed using CLSI broth microdilution methods for Candida (M27-A3) and Aspergillus (M38-A2). Amphotericin B was tested at a range of 0.06 to 64 μg/ml; all other antifungal agents were tested at 0.015 to 16 μg/ml. Plates were incubated at 35°C and were read from the bottom using a plate viewer after 24 and 48 h for Candida and after 48 h for Aspergillus. MIC values are reported as the lowest drug concentration to yield a 50% reduction in the growth of Candida species tested compared to the control well. Minimum effective concentration (MEC) values are reported as the lowest drug concentration to yield the stunted hyphal growth of Aspergillus species tested compared to that of the control well.

[2] = system: Aspergillus fumigatus ATCC MYA-3626; experiment: CLSI broth microdilution (M38-A2) MEC/MIC; format: cell-based; conditions: 48 h, stunted hyphal growth
Method: as §1

[3] = system: Aspergillus niger ATCC 16888; experiment: CLSI broth microdilution (M38-A2) MEC/MIC; format: cell-based; conditions: 48 h, stunted hyphal growth
Method: as §1

[4] = system: Aspergillus flavus ATCC 22546; experiment: CLSI broth microdilution (M38-A2) MEC/MIC; format: cell-based; conditions: 48 h, stunted hyphal growth
Method: as §1

[5] = system: Aspergillus candidus ATCC 13686; experiment: CLSI broth microdilution (M38-A2) MEC/MIC; format: cell-based; conditions: 48 h, stunted hyphal growth
Method: as §1

[6] = system: Aspergillus ochraceus ATCC 96919; experiment: CLSI broth microdilution (M38-A2) MEC/MIC; format: cell-based; conditions: 48 h, stunted hyphal growth
Method: as §1

[7] = system: Candida parapsilosis ATCC 22019; experiment: CLSI broth microdilution (M27-A3) MIC; format: cell-based; conditions: Lodderomyces parapsilosis, ATCC22019, 50% reduction in growth
Method: as §1

[8] = system: Candida guilliermondii ATCC 34134; experiment: CLSI broth microdilution (M27-A3) MIC; format: cell-based; conditions: Meyerozyma guilliermondii, ATCC34134, 50% reduction in growth
Method: as §1

[9] = system: Candida tropicalis ATCC 90874; experiment: CLSI broth microdilution (M27-A3) MIC; format: cell-based; conditions: 50% reduction in growth
Method: as §1

[10] = system: Candida albicans ATCC 90028; experiment: CLSI broth microdilution (M27-A3) MIC; format: cell-based; conditions: 50% reduction in growth
Method: as §1

[11] = system: Candida lusitaniae ATCC 34134; experiment: CLSI broth microdilution (M27-A3) MIC; format: cell-based; conditions: Clavispora lusitaniae
Method: as §1

[12] = system: Candida krusei ATCC 14243; experiment: CLSI broth microdilution (M27-A3) MIC; format: cell-based; conditions: Pichia kudriavzevii, ATCC14243, 50% reduction in growth
Method: as §1

[13] = system: Candida glabrata ATCC 90030; experiment: CLSI broth microdilution (M27-A3) MIC; format: cell-based; conditions: Nakaseomyces glabratus, ATCC90030, 50% reduction in growth, read-out: MIC
Method: as §1

[14] = single-dose pharmacokinetics in beagle dogs; conditions: male, dog, in vivo, iv
Method: Four male, nonnaive beagle dogs received a single i.v. infusion (1.4 mg/kg) of test article over 10 min via a catheter placed in the cephalic vein. Blood draws (1.0 ml) were taken at 0.083, 0.33, 0.75, 1.5, 4.5, 12, 24, and 48 h. An additional blood draw at 72 h was obtained for CD101. Blood draws were taken from the jugular vein and were collected into K3 EDTA tubes. Following blood collection, the samples were immediately inverted several times and were held on wet ice pending centrifugation. The samples were centrifuged within ∼30 min of collection under refrigeration (∼5°C for ∼10 min at ∼2,000 g) to obtain plasma. The plasma samples were frozen immediately on dry ice after separation and were stored at approximately −70°C until analysis. Levels of test article in the plasma samples were measured by quantitative liquid chromatography-tandem mass spectrometry (LC-MS/MS) analysis compared to a calibration curve and an internal standard. Pharmacokinetic parameters were calculated from the plasma concentration-time data using standard noncompartmental methods and utilizing WinNonlin analysis software.

[15] = system: Aspergillus clavatus ATCC 10058; experiment: CLSI broth microdilution (M38-A2) MEC/MIC; format: cell-based; conditions: read at 68 h, stunted hyphal growth
Method: as §1, with “Plates were incubated at 35°C and were read from the bottom using a plate viewer after 24 and 48 h for Candida and after 48 h for Aspergillus.” left out

Aspergillus spp. = experiment: CLSI broth microdilution (M38-A2) MEC, whole panel; format: cell-based; conditions: 48 h, summary of Table 3
Method: as §1

Candida albicans R303 = experiment: mouse model of disseminated candidiasis, fungal burden in kidneys; format: in vivo; conditions: neutropenic CD-1 mice, 0.5, 1.5 or 4.5 mg/kg 2 h after inoculation, kidneys at 24 h
Method: Candida albicans R303 was grown on Sabouraud dextrose agar (SDA) plates for 24 h at 35°C. Colonies were transferred to phosphate-buffered saline (PBS) and diluted to 3.8 × 10^5 CFU/ml. Female CD-1 mice (Charles River Laboratories, Portage, MI) were rendered neutropenic via injection with cyclophosphamide (150 mg/kg) 5 days and 2 days prior to inoculation. Each animal was infected by injecting 0.1 ml of inoculum into the tail vein. In the treatment groups, animals received 0.5, 1.5, or 4.5 mg/kg of test article 2 h after inoculation. Two groups of untreated, infected controls were used to evaluate fungal burden: at 2 h when test articles were administered in the treatment groups and at 24 h when the treatment groups were sacrificed. Kidneys were harvested at 2 h in one untreated control group and at 24 h in all other groups. The kidneys were homogenized in 2 ml of sterile phosphate-buffered saline, and 0.1-ml aliquots were spread on SDA plates and incubated at 35°C overnight. Fungal burden was determined based on the log10 C. albicans CFU counts from paired kidneys. Data were analyzed using a one-way analysis of variance (ANOVA) and the Dunnett multiple comparisons test comparing the test articles to the infected control group (GraphPad InStat version 3.1; GraphPad Software, San Diego, CA).

| SMILES | MEC [1] [µg/mL] | MEC [2] [µg/mL] | MEC [3] [µg/mL] | MEC [4] [µg/mL] | MEC [5] [µg/mL] | MEC [6] [µg/mL] | MIC ([7]; 24 h) [µg/mL] | MIC ([7]; 48 h) [µg/mL] | MIC ([8]; 24 h) [µg/mL] | MIC ([8]; 48 h) [µg/mL] | MIC ([9]; ATCC90874, 24 h) [µg/mL] | MIC ([9]; ATCC90874, 48 h) [µg/mL] | MIC ([10]; ATCC90028, 24 h) [µg/mL] | MIC ([10]; ATCC90028, 48 h) [µg/mL] | MIC ([12]; 24 h) [µg/mL] | MIC ([12]; 48 h) [µg/mL] | MIC ([13]; 24 h) [µg/mL] | MIC ([13]; 48 h) [µg/mL] | MEC [15] [µg/mL] | MEC values against all Aspergillus species tested (Aspergillus spp.) | other results |
| --- | --- | --- | --- | --- | --- | --- | --- | --- | --- | --- | --- | --- | --- | --- | --- | --- | --- | --- | --- | --- | --- |
| CCCCCOc1ccc(-c2ccc(-c3ccc(C(=O)N[C@H]4C[C@@H](O)[C@@H](O)NC(=O)[C@@H]5[C@@H](O)[C@@H](C)CN5C(=O)[C@H]([C@@H](C)O)NC(=O)[C@H]([C@H](O)[C@@H](O)c5ccc(O)cc5)NC(=O)[C@@H]5C[C@@H](O)CN5C(=O)[C@H]([C@@H](C)O)NC4=O)cc3)cc2)cc1 [Anidulafungin, anidulafungin] ({pTerphenylCO(4''-OnC5H11)}-[Orn(4R-OH,5R-OH)]T[Hyp][hTyr(3S-OH,4S-OH)]T[Pro(3S-OH,4S-Me)]; lactam 1-C) | ≤0.015 | ≤0.015 | ≤0.015 | ≤0.015 | ≤0.015 | 0.03 | 0.5 (≈ 0.438 µM) | 0.5 (≈ 0.438 µM) | 1 (≈ 0.877 µM) | 2 (≈ 1.75 µM) | ≤ 0.015 | ≤ 0.015 | ≤ 0.015 | ≤ 0.015 | 0.03 (≈ 0.0263 µM) | 0.06 (≈ 0.0526 µM) | 0.03 (≈ 0.0263 µM) | 0.03 (≈ 0.0263 µM) | ≤0.015 | below 0.03 μg/ml | MIC ([11]; ATCC34134, 24 h): 0.125 µg/mL (≈ 0.11 µM); MIC ([11]; ATCC34134, 48 h): 0.125 µg/mL (≈ 0.11 µM); clearance ([14]; beagle dogs, single i.v. 1.4 mg/kg, 10-min slow bolus): 0.783 mL/min/kg; Vd ([14]; beagle dogs, single i.v. 1.4 mg/kg, 10-min slow bolus, read-out: V (volume of distribution)): 0.779 L/kg; half-life ([14]; beagle dogs, single i.v. 1.4 mg/kg, 10-min slow bolus, read-out: t1/2 (converted)): 11.6 h |
| CCCCCOc1ccc(-c2ccc(-c3ccc(C(=O)N[C@H]4C[C@@H](O)[C@@H](NCC[N+](C)(C)C)NC(=O)[C@@H]5[C@@H](O)[C@@H](C)CN5C(=O)[C@H]([C@@H](C)O)NC(=O)[C@H]([C@H](O)[C@@H](O)c5ccc(O)cc5)NC(=O)[C@@H]5C[C@@H](O)CN5C(=O)[C@H]([C@@H](C)O)NC4=O)cc3)cc2)cc1 [Compound 6] | ≤0.015 | ≤0.015 | ≤0.015 | ≤0.015 | ≤0.015 | 0.03 | 0.25 | 0.5 | 0.5 | 1 | ≤ 0.015 | ≤ 0.015 | 0.03 | 0.03 | 0.03 | 0.03 | 0.03 | 0.03 | 0.03 | below 0.03 μg/ml | reductions in fungal burden vs infected control (statistical significance) (Candida albicans R303): statistically significant (P < 0.01) reductions in fungal burden at all doses; MIC ([11]; ATCC34134, 24 h, 50% reduction in growth, read-out: MIC): 0.25 µg/mL; MIC ([11]; ATCC34134, 48 h, 50% reduction in growth, read-out: MIC): 0.25 µg/mL; Vd ([14]; beagle, 1.4 mg/kg): 0.874 L/kg; half-life ([14]; beagle, 1.4 mg/kg): 27.6 h |
